Laboratory results taken from patent US20180169045A1, “AMINO ACID COMPOSITIONS AND METHODS FOR THE TREATMENT OF LIVER DISEASES” (AXCELLA HEALTH INC., priority 2016, published 2018).

Assays:
[1] = test system: LX-2 hepatic stellate cells; experiment: TGFβ1-induced fibrogenic gene expression (Col1a1, Acta2, Timp2) in LX-2 cells, qRT-PCR; format: cell-based; conditions: TGFβ1 5 ng/mL, combinations at 40× HMDB concentrations, N-acetylcysteine 10 mM
[2] = test system: Primary human hepatic stellate cells; experiment: TGFβ1-induced Col1a1 gene expression in primary human hepatic stellate cells (RT-qPCR); format: cell-based; conditions: for Col1a1 gene expression, in words: primary human hepatic stellate cells from three donors, 3 ng/mL TGFβ1, 24 h
Procedure: Primary human hepatic stellate cells were obtained from Samsara Sciences based on the following criteria for selecting donors: adult age (between 18 and 50 years), normal BMI (>18.5 and <25), and absence of confounding liver disease. Cells grown in Complete HSC Medium to ˜80% confluence in T75 or T150 flasks below passage 10 were seeded into sterile, collagen I coated, 96-well optical plastic microplates (ThermoScientific, 152036) at 6000 cells per well ([…]) and incubated overnight at 37° C., 5% CO2 in a humidified incubator in DMEM with 2% Fetal Bovine Serum and 1% Antibiotic-Antimycotic.
After the overnight incubation, plates were removed from the incubator and the medium was gently pipetted off and washed twice with 150 μL per well DPBS. The DPBS was removed and the pretreatment medium (±single amino acid dropout, 1×HMDB DMEM+1% Antibiotic-Antimycotic, 10 mM HEPES, ±supplemental amino acid dose; see experiment for medium composition) was applied to the cells at 150 μL per well. Plates were returned to the incubator for 10.5 hours.
After 10.5 hour pretreatment, the medium was removed from the cells, and the same pretreatment medium, now supplemented with 3 ng/mL TGFβ1, was applied. Each plate contained 3 ng/mL TGFβ1 in 1× human plasma amino acid (HMDB or PAA) concentration medium, 0 ng/mL in 1×HMDB, and 3 ng/mL TGFβ1+20 μM Silybin in 1×HMDB to serve as controls. Plates were then incubated for 24 hours at 37° C., 5% CO2.
After 24 hour stimulus, supernatant was removed and frozen at −80° C. in two separate aliquots. The cells were then washed with 125 μL per well Buffer FCW (FastLane Cell Multiplex NR Kit, Qiagen, 216713). The wash buffer was immediately removed and 50 μL of Cell Processing Mix (containing genomic DNA Wipeout buffer) was applied to lyse cells, incubating for 10 minutes at room temperature. RNA lysate was then transferred to 96-well qPCR plates, sealed, and gDNA was digested on thermal cycler at 75° C. for 5 minutes. RNA lysate was frozen at −80° C.
Each 20 μL one-step RT-qPCR reaction contained 4 μL of RNA lysate. Gene expression of Col1a1, Timp2, and Gapdh were multiplexed using the HEX, Cy5, and FAM fluorescent channels, respectively, with commercially available primer-probe mixes (the Human Col1a1 Primer-Probe Set, HEX; the Human Timp2 Primer-Probe Set, Cy5; and the Human Gapdh Primer-Probe Set, FAM from IDT). Gene expression was evaluated using the ΔΔCq method within each single amino acid dropout and supplementation by normalizing to its own 1×HMDB concentration.

| Compound | Col1a1 gene expression, in words [1] | Timp2 gene expression, in words [1] | Col1a1 gene expression, in words [2] | Col1a1 Fold Expression Relative to Control, Mean ([2]; second donor, normalized to Gapdh, Conc. 153 μM (baseline)) [fold] |
| --- | --- | --- | --- | --- |
| CC(=O)N[C@@H](CS)C(=O)O [N-acetylcysteine] | reduced | reduced | significantly reduced Col1a1 gene expression in all three donors | – |
| CC(C)[C@H](N)C(=O)O [Valine, L-Valine] | – | – | did not significantly change | – |
| CC(C)C[C@H](N)C(=O)O [Leucine, L-Leucine] | – | – | did not significantly change | 1.01 |
| N=C(N)NCCC[C@H](N)C(=O)O [Arginine, L-Arginine] | – | – | did not significantly change | – |
| NC(=O)CC[C@H](N)C(=O)O [Glutamine, L-Glutamine] | – | – | decreased Col1a1 gene expression in two of three donors | – |
| CC[C@H](C)[C@H](N)C(=O)O [Isoleucine, L-Isoleucine] | – | – | did not significantly change | – |
